# In patent US10385019B2, “Inhibitors of EGFR and methods of use thereof” (Dana-Farber Cancer Institute, Inc., priority 2015, dated 2019):
# Target: EGFR T790M/L858R Ba/F3 cell line (Homo sapiens, UniProt P00533, T790M/L858R, cells depend on it)
# Assay: Ba/F3 cell proliferation model
# Format: cell-based, murine
# Conditions: combined with cetuximab (% cetuximab, 1.0 μM drug concentration with 1.0 μg/mL cetuximab)
# Text: The selectivity between wild-type EGFR and EGFR containing one or more mutations as described herein can also be measured using cellular proliferation assays where cell proliferation is dependent on kinase activity. For example, murine Ba/F3 cells transfected with a suitable version of wild-type EGFR (such as VIII; containing a WT EGFR kinase domain), or Ba/F3 cells transfected with L858R/T790M, Del/T790M/L718Q, L858R/T790M/L718Q, L858R/T790M/C797S, Del/T790M/C797S, L858R/T790M/I941R, or Exon 19 deletion/T790M can be used.
# Cell lines are plated in media. The compounds of the present disclosure are then serially diluted and transferred to the cells. Cell viability is measured via a luminescent readout. Data is analyzed by non-linear regression curve-fitting. […]
# The EGFR mutant L858R, Del E746_A750, L858R/T790M, DelE746_A750/T790M, L858R/T790M/C797S and Del/T790M/C797S Ba/F3 cells have been previously described (Zhou, W., Ercan, D., Chen, L., Yun, C. H., Li, D., Capelletti, M., Cortot, A. B., Chirieac, L., Iacob, R. E., Padera, R., et al. “Novel mutant-selective EGFR kinase inhibitors against EGFR T790M,” Nature 462, (2009), 1070-1074). All cell lines were maintained in RPMI 1640 (Cellgro; Mediatech Inc., Herndon, Calif.) supplemented with 10% FBS 100 units/mL penicillin, 100 units/mL streptomycin, and 2 mM glutamine. L858R cells were maintained in ACL-4 media (Invitrogen, Carlsbad, Calif.) supplemented with 5% FBS, 100 units/mL penicillin, 100 units/mL streptomycin, and 2 mM glutamine. The EGFR I941R mutation was introduced via site directed mutagenesis using the Quick Change Site-Directed Mutagenesis kit (Stratagene; La Jolla, Calif.) according to the manufacturer's instructions. All constructs were confirmed by DNA sequencing. The constructs were shuttled into the retroviral vector JP 1540 using the BD Creator™ System (BD Biosciences). Ba/F3 cells were infected with retrovirus and according to standard protocols, as described previously (Zhou et al, Nature 2009). Stable clones were obtained by selection in puromycin (2 μg/ml).
# Growth and inhibition of growth was assessed by MTS assay and was performed according to previously established methods (Zhou et al., Nature 2009). The MTS assay is a colorimetric method for determining the number of viable cells that is based on the bioreduction of MTS by cells to a formazan product that is soluble in cell culture medium and can be detected spectrophotometrically. Ba/F3 cells of different EGFR genotypes were exposed to treatment for 72 hours and the number of cells used per experiment determined empirically and has been previously established (Zhou et al., Nature 2009). All experimental points were set up in six wells and all experiments were repeated at least three times. […] The curves were fitted using a non-linear regression model with a sigmoidal dose response.
# Inhibition data of an EGFR T790M/L858R Ba/F3 cell line.
# Chain of EGFR T790M/L858R Ba/F3 cell line (P00533 whole entry T790M/L858R): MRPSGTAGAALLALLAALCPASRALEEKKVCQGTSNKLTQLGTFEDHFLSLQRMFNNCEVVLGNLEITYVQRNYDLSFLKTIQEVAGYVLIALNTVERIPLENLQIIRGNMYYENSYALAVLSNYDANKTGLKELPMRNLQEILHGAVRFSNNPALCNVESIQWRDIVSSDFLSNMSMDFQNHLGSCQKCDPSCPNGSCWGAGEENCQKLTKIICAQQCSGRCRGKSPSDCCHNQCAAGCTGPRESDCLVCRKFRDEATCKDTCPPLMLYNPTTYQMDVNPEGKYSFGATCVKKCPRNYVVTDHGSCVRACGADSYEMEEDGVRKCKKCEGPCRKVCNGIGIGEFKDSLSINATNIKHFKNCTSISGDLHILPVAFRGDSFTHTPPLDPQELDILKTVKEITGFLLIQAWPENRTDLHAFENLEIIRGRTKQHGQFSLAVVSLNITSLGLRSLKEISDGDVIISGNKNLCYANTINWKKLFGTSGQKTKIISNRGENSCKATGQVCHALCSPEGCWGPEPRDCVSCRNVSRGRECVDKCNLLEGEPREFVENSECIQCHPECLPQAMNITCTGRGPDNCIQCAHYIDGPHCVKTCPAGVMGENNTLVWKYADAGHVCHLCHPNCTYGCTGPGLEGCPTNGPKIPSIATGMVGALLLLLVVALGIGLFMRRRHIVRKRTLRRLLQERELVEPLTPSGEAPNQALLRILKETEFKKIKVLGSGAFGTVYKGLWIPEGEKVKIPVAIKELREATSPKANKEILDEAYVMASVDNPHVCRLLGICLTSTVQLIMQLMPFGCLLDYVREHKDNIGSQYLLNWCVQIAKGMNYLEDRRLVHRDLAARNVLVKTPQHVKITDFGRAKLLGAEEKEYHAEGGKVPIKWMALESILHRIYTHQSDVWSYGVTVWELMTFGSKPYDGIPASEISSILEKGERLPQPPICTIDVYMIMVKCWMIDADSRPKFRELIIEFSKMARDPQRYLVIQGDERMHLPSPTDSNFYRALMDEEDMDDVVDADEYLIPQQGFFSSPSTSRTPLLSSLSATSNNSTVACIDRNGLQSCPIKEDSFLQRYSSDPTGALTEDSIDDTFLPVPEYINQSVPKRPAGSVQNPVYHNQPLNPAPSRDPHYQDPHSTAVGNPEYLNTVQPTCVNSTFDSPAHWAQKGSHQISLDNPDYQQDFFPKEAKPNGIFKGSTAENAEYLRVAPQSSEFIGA
row,Compound,Activity (% inhibition)
1,"O=C(Nc1nncs1)[C@H](c1ccccc1)N1Cc2ccccc2C1=O [Compound I-42, (S)-2-(1-oxoisoindolin-2-yl)-2-phenyl-N-(1,3,4-thiadiazol-2-yl)acetamide]",A (a % inhibition of about 75%)
2,"O=C(Nc1ncnc2[nH]ncc12)[C@@H](c1ccccc1)N1Cc2ccccc2C1=O [Compound I-33, (R)-2-(1-oxoisoindolin-2-yl)-2-phenyl-N-(1H-pyrazolo[3,4-d]pyrimidin-4-yl)acetamide]",A (a % inhibition of about 75%)
3,"CN(C)CCNC(=O)c1cccc(-c2ccc3c(c2)C(=O)N([C@@H](C(=O)Nc2nccs2)c2ccccc2)C3)c1 [Compound I-88, (R)-N-(2-(dimethylamino)ethyl)-3-(3-oxo-2-(2-oxo-1-phenyl-2-(thiazol-2-ylamino)ethyl)isoindolin-5-yl)benzamide]",C (a % inhibition of between about 25% to about 50%)
4,"O=C(Nc1cc(Br)ccn1)[C@H](c1ccccc1)N1Cc2ccccc2C1=O [Compound I-29, (S)-N-(4-bromopyridin-2-yl)-2-(1-oxoisoindolin-2-yl)-2-phenylacetamide]",A (a % inhibition of about 75%)
5,"C[C@H](C(=O)Nc1nccs1)N1Cc2ccc(-c3ccc(N4CCNCC4)cc3)cc2C1=O [Compound I-118, (R)-2-(1-oxo-6-(4-(piperazin-1-yl)phenyl)isoindolin-2-yl)-N-(thiazol-2-yl)propanamide]",A (a % inhibition of about 75%)
6,"O=C(Nc1nccs1)[C@@H](c1ccccc1)N1Cc2ccc(-c3cccnc3)cc2C1=O [Compound I-60, (R)-2-(1-oxo-6-(pyridin-3-yl)isoindolin-2-yl)-2-phenyl-N-(thiazol-2-yl)acetamide]",C (a % inhibition of between about 25% to about 50%)
7,"O=C(Nc1nccs1)[C@@H](c1ccccc1)N1Cc2cc(-c3ccc4c(c3)OCCO4)ccc2C1=O [Compound I-103, (R)-2-(5-(2,3-dihydrobenzo[b] [1,4]dioxin-6-yl)-1-oxoisoindolin-2-yl)-2-phenyl-N-(thiazol-2-yl)acetamide]",C (a % inhibition of between about 25% to about 50%)
8,"O=C(Nc1nccs1)[C@@H](c1ccccc1)N1Cc2ccc(-c3ccccc3)cc2C1=O [Compound I-59, (R)-2-(1-oxo-6-phenylisoindolin-2-yl)-2-phenyl-N-(thiazol-2-yl)acetamide]",C (a % inhibition of between about 25% to about 50%)
9,"O=C(Nc1nccs1)C(c1cccc(F)c1)N1Cc2ccc(-c3ccc(CN4CCNCC4)cc3)cc2C1=O (centres unmarked) [Compound I-125, 2-(3-fluorophenyl)-2-(1-oxo-6-(4-(piperazin-1-ylmethyl)phenyl)isoindolin-2-yl)-N-(thiazol-2-yl)acetamide]",D (a % inhibition of between about 0% to about 25%)
10,"O=C(Nc1nccs1)[C@@H](c1ccccc1)N1Cc2ccc(Nc3cccc(F)c3)cc2C1=O [Compound I-99, (R)-2-(6-((3-fluorophenyl)amino)-1-oxoisoindolin-2-yl)-2-phenyl-N-(thiazol-2-yl)acetamide]",C (a % inhibition of between about 25% to about 50%)
11,"O=C(NCCCN1CCOCC1)c1ccc(-c2ccc3c(c2)C(=O)N([C@@H](C(=O)Nc2nccs2)c2ccccc2)C3)cc1 [Compound I-84, (R)-N-(3-morpholinopropyl)-4-(3-oxo-2-(2-oxo-1-phenyl-2-(thiazol-2-ylamino)ethyl)isoindolin-5-yl)benzamide]",D (a % inhibition of between about 0% to about 25%)
12,"CN(C)CCCCNC(=O)c1ccc(-c2ccc3c(c2)C(=O)N([C@@H](C(=O)Nc2nccs2)c2ccccc2)C3)cc1 [Compound I-82, (R)-N-(4-(dimethylamino)butyl)-4-(3-oxo-2-(2-oxo-1-phenyl-2-(thiazol-2-ylamino)ethyl)isoindolin-5-yl)benzamide]",C (a % inhibition of between about 25% to about 50%)
13,"O=C(NCCCN1CCOCC1)c1csc(NC(=O)[C@@H](c2ccccc2)N2Cc3ccccc3C2=O)n1 [Compound I-14, (R)-N-(3-morpholinopropyl)-2-(2-(1-oxoisoindolin-2-yl)-2-phenylacetamido)thiazole-4-carboxamide]",A (a % inhibition of about 75%)
14,"O=C(Nc1nccs1)[C@@H](c1ccccc1)N1Cc2ccc(-c3cncnc3)cc2C1=O [Compound I-62, (R)-2-(1-oxo-6-(pyrimidin-5-yl)isoindolin-2-yl)-2-phenyl-N-(thiazol-2-yl)acetamide]",B (a % inhibition of between about 50% to about 75%)
15,"C[C@H](NC(=O)[C@H](c1ccccc1)N1Cc2ccccc2C1=O)c1ccccc1 [Compound I-2, (S)-2-(1-oxoisoindolin-2-yl)-2-phenyl-N-((S)-1-phenylethyl)acetamide]",A (a % inhibition of about 75%)
16,"O=C(Nc1nccs1)[C@@H](c1ccccc1)N1Cc2ccc(-c3ccc(C(=O)N4CCOCC4)cc3)cc2C1=O [Compound I-85, (R)-2-(6-(4-(morpholine-4-carbonyl)phenyl)-1-oxoisoindolin-2-yl)-2-phenyl-N-(thiazol-2-yl)acetamide]",D (a % inhibition of between about 0% to about 25%)
17,"O=C(Nc1nccs1)[C@@H](c1ccccc1)N1Cc2ccc(-c3cccc(C(=O)N4CCOCC4)c3)cc2C1=O [Compound I-92, (R)-2-(6-(3-(morpholine-4-carbonyl)phenyl)-1-oxoisoindolin-2-yl)-2-phenyl-N-(thiazol-2-yl)acetamide]",C (a % inhibition of between about 25% to about 50%)
18,"CCn1cc(-c2ccc3c(c2)C(=O)N([C@@H](C(=O)Nc2nccs2)c2ccccc2)C3)cn1 [Compound I-63, (R)-2-(6-(1-ethyl-1H-pyrazol-4-yl)-1-oxoisoindolin-2-yl)-2-phenyl-N-(thiazol-2-yl)acetamide]",C (a % inhibition of between about 25% to about 50%)
19,"O=C(Nc1cnc(Br)cn1)[C@@H](c1ccccc1)N1Cc2ccccc2C1=O [Compound I-27, (R)-N-(5-bromopyrazin-2-yl)-2-(1-oxoisoindolin-2-yl)-2-phenylacetamide]",A (a % inhibition of about 75%)
20,"CN(C(=O)[C@@H](c1ccccc1)N1Cc2ccccc2C1=O)c1nccs1 [Compound I-58, (R)-N-methyl-2-(1-oxoisoindolin-2-yl)-2-phenyl-N-(thiazol-2-yl)acetamide]",B (a % inhibition of between about 50% to about 75%)
21,"O=C(Nc1ncc(Br)s1)[C@H](Cc1ccccc1)N1Cc2ccccc2C1=O [Compound I-49, (S)-N-(5-bromothiazol-2-yl)-2-(1-oxoisoindolin-2-yl)-3-phenylpropanamide]",A (a % inhibition of about 75%)
22,"COc1ccc(-c2ccc3c(c2)C(=O)N([C@@H](C(=O)Nc2nccs2)c2ccccc2)C3)c(OC)c1 [Compound I-80, (R)-2-(6-(2,4-dimethoxyphenyl)-1-oxoisoindolin-2-yl)-2-phenyl-N-(thiazol-2-yl)acetamide]",C (a % inhibition of between about 25% to about 50%)
23,"O=C(Nc1nccs1)[C@@H](c1ccccc1)N1Cc2ccc(-c3ccccn3)cc2C1=O [Compound I-108, (R)-2-(1-oxo-6-(pyridin-2-yl)isoindolin-2-yl)-2-phenyl-N-(thiazol-2-yl)acetamide]",C (a % inhibition of between about 25% to about 50%)
